Reference: BigSolDB 2.1

NC(N)=S
solubility (mole fraction)
Settings | 303.15 K | 308.15 K | 313.15 K | 318.15 K | 323.15 K | 328.15 K | 333.15 K | 338.15 K | 343.15 K
in acetonitrile | 0.00752 | 0.00805 | 0.00864 | 0.00915 | 0.00972 | 0.0101 | 0.0108 | 0.011 | 0.0112
in benzene | 0.00283 | 0.00313 | 0.0034 | 0.00372 | 0.00395 | 0.00436 | 0.00496 | 0.00564 | 0.0065
in chlorobenzene | 0.00127 | 0.00144 | 0.00157 | 0.00174 | 0.00189 | 0.00211 | 0.0023 | 0.00256 | 0.00277
in ethanol | 0.0283 | 0.0322 | 0.0354 | 0.0401 | 0.0465 | 0.0531 | 0.0592 | 0.0662 | 0.0751
in ethyl acetate | 0.0199 | 0.021 | 0.0221 | 0.023 | 0.0244 | 0.0264 | 0.0286 | 0.0307 | 0.0327
in isopropanol | 0.0258 | 0.0286 | 0.0325 | 0.0361 | 0.0408 | 0.0445 | 0.049 | 0.0534 | 0.0588
in m-xylene | 0.0022 | 0.00249 | 0.00277 | 0.00311 | 0.00342 | 0.00375 | 0.00422 | 0.00485 | 0.00556
in methanol | 0.0605 | 0.0654 | 0.0728 | 0.0804 | 0.0932 | 0.106 | 0.123 | – | –
in n-butanol | 0.0207 | 0.0225 | 0.0248 | 0.0273 | 0.0297 | 0.0332 | 0.0361 | 0.0396 | –
in n-octanol | 0.0211 | 0.0242 | 0.028 | 0.032 | 0.0354 | 0.0394 | 0.0445 | 0.0488 | 0.0526
in n-propanol | 0.0242 | 0.0265 | 0.0292 | 0.0324 | 0.036 | 0.0398 | 0.0451 | 0.0499 | 0.0544
in toluene | 0.0025 | 0.00289 | 0.00307 | 0.00336 | 0.00372 | 0.00405 | 0.00452 | 0.00525 | 0.0059
